Laboratory results: PubChem BioAssay AID248 (DTP/NCI, 2004)
Where “and” joins values, the source holds several entries; their conditions need not be identical. Identical values can stand only once. Toxic doses and inconclusive results are not listed. No stated cut-off is given here; in the data, active means T/C of 150% or more; inactive means T/C below 125%.

System: L1210 leukemia ip in BDF1 mice, survival T/C
Experiment: NCI In Vivo Anticancer Drug Screen. Data for tumor model L1210 Leukemia (intraperitoneal) in B6D2F1 (BDF1) mice
Settings: endpoint: mean survival time, higher = longer survival
Summary of the method: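 Ratio derived from survival: compound-dosed mice over vehicle-dosed mice, all bearing a transplantable tumor.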

[1] = dose: 100.0 mg/kg/injection, schedule: Q01DX009 (ip), vehicle: Klucel (hydroxypropylcellulose) (HPC)
[2] = dose: 100.0 mg/kg/injection, schedule: Q04DX003 (ip), vehicle: Klucel (hydroxypropylcellulose) (HPC)
[3] = dose: 200.0 mg/kg/injection, schedule: Q01DX009 (ip), vehicle: Klucel (hydroxypropylcellulose) (HPC)
[4] = dose: 200.0 mg/kg/injection, schedule: Q04DX003 (ip), vehicle: Klucel (hydroxypropylcellulose) (HPC)
[5] = dose: 100.0 mg/kg/injection, schedule: Q01DX001 (ip), vehicle: saline
[6] = dose: 400.0 mg/kg/injection, schedule: Q04DX003 (ip), vehicle: Klucel (hydroxypropylcellulose) (HPC)
[7] = dose: 400.0 mg/kg/injection, schedule: Q01DX009 (ip), vehicle: Klucel (hydroxypropylcellulose) (HPC)
[8] = dose: 200.0 mg/kg/injection, schedule: Q01DX001 (ip), vehicle: saline

Measured: T/C

Cc1c(C)c(CN)c(C)c(C)c1CN
inactive: [1] 91 % of control | [2] 103 % of control | [3] 100 % of control | [4] 98 % of control

C[N+]12CC3C(O)CC1CCC32 (centres undefined)
inactive: [5] 101 % of control

CN(CCc1ccccc1)C(N)=S
inactive: dose: 75.0 mg/kg/injection, schedule: Q01DX001 (ip), vehicle: acetone 96 % of control

CCCCCCCCCCCCCCCCNC(=O)c1cc([N+](=O)[O-])ccc1C(=O)O
inactive: [2] 95 % of control | [4] 95 % of control | [6] 97 % of control

O=[N+]([O-])c1cc(Br)c(N2CCCC2)cc1N1CCCC1
inactive: [1] 106 % of control | [2] 104 % of control | [3] 106 % of control | [4] 93 % of control | [7] 98 % of control | [6] 88 % of control

CCCCCCCCCCCCNC(=O)Nc1ccc(CC)cc1
inactive: [1] 87 % of control | [2] 97 % of control | [3] 94 % of control | [4] 96 % of control | [7] 93 % of control | [6] 101 % of control

CCC(C)C(C)C(C)=O (centres undefined)
inactive: dose: 50.0 mg/kg/injection, schedule: Q01DX001 (ip), vehicle: saline 110 % of control | [5] 101 % of control | [8] 93 % of control

Cc1ccc(-n2c(O)c(N=Nc3ccc(Cl)cc3)c(=O)n(-c3ccccc3)c2=S)cc1
inactive: dose: 37.5 mg/kg/injection, schedule: Q01DX001 (ip), vehicle: Klucel (hydroxypropylcellulose) (HPC) 96 % of control | dose: 75.0 mg/kg/injection, schedule: Q01DX001 (ip), vehicle: Klucel (hydroxypropylcellulose) (HPC) 92 % of control | dose: 150.0 mg/kg/injection, schedule: Q01DX001 (ip), vehicle: Klucel (hydroxypropylcellulose) (HPC) 102 % of control

CC(=O)c1ccc(Oc2ccc([N+](=O)[O-])cc2)cc1
inactive: [2] 98 % of control | [4] 96 % of control | [6] 101 % of control

CC(=O)Nc1ccc(/C=N/Nc2c([N+](=O)[O-])cc(C)cc2[N+](=O)[O-])cc1
inactive: dose: 100.0 mg/kg/injection, schedule: Q01DX009 (ip), vehicle: saline 98 % of control | dose: 200.0 mg/kg/injection, schedule: Q01DX009 (ip), vehicle: saline 96 % of control | dose: 400.0 mg/kg/injection, schedule: Q01DX009 (ip), vehicle: saline 94 % of control

O=[N+]([O-])c1ccc(/C=C/C=C/c2ccc(Cl)cc2Cl)cc1
inactive: dose: 100.0 mg/kg/injection, schedule: Q01DX009 (ip), vehicle: saline with Tween-80 94 % of control | dose: 200.0 mg/kg/injection, schedule: Q01DX009 (ip), vehicle: saline with Tween-80 94 % of control

Cc1nnc2ncnc(SCc3ccccc3)c2n1
inactive: dose: 12.5 mg/kg/injection, schedule: Q01DX001 (ip), vehicle: Klucel (hydroxypropylcellulose) (HPC) 100 % of control | dose: 25.0 mg/kg/injection, schedule: Q01DX001 (ip), vehicle: Klucel (hydroxypropylcellulose) (HPC) 95 % of control and 91 % of control | dose: 50.0 mg/kg/injection, schedule: Q01DX001 (ip), vehicle: Klucel (hydroxypropylcellulose) (HPC) 93 % of control | dose: 100.0 mg/kg/injection, schedule: Q01DX001 (ip), vehicle: Klucel (hydroxypropylcellulose) (HPC) 90 % of control

CC(C)C(=O)OCC(=O)c1ccc(-c2ccccc2)cc1
inactive: [5] 100 % of control | [8] 94 % of control | dose: 400.0 mg/kg/injection, schedule: Q01DX001 (ip), vehicle: saline 111 % of control

CN(C)c1ccc(C(=O)c2ccccc2)cc1
inactive: dose: 50.0 mg/kg/injection, schedule: Q01DX009 (ip), vehicle: Klucel (hydroxypropylcellulose) (HPC) 101 % of control | [1] 108 % of control | [2] 100 % of control | [3] 95 % of control | [4] 105 % of control | [7] 102 % of control | [6] 100 % of control
